Test results as given in the supplement of paper PMC9663587.

Columns and labels:
BSJ-03-123 [1] = compound: T1, CC(=O)c1c(C)c2cnc(Nc3ccc(N4CCN(CCOCCOCCOCCNC(=O)COc5cccc6c5C(=O)N(C5CCC(=O)NC5=O)C6=O)CC4)cn3)nc2n(C2CCCC2)c1=O [BSJ-03-123]
Volasertib/BI6727 = compound: CC[C@@H]1C(=O)N(C)c2cnc(Nc3ccc(C(=O)N[C@H]4CC[C@H](N5CCN(CC6CC6)CC5)CC4)cc3OC)nc2N1C(C)C [Volasertib/BI6727]
Ceritinib/LDK378 = compound: Cc1cc(Nc2ncc(Cl)c(Nc3ccccc3S(=O)(=O)C(C)C)n2)c(OC(C)C)cc1C1CCNCC1 [Ceritinib/LDK378]
INK128/MLN0128 = compound: CC(C)n1nc(-c2ccc3oc(N)nc3c2)c2c(N)ncnc21 [INK128/MLN0128]
Neratinib/HKI272 [2] = compound: T2, CCOc1cc2ncc(C#N)c(Nc3ccc(OCc4ccccn4)c(Cl)c3)c2cc1NC(=O)/C=C/CN(C)C [Neratinib/HKI272]
LEE011/Ribociclib [3] = compound: T3, CN(C)C(=O)c1cc2cnc(Nc3ccc(N4CCNCC4)cn3)nc2n1C1CCCC1 [LEE011/Ribociclib]
Tivantinib/ARQ197 = compound: O=C1NC(=O)[C@@H](c2cn3c4c(cccc24)CCC3)[C@@H]1c1c[nH]c2ccccc12 [Tivantinib/ARQ197]
Paclitaxel = compound: CC(=O)O[C@H]1C(=O)[C@@]2(C)[C@H]([C@H](OC(=O)c3ccccc3)[C@]3(O)C[C@H](OC(=O)[C@H](O)[C@@H](NC(=O)c4ccccc4)c4ccccc4)C(C)=C1C3(C)C)[C@]1(OC(C)=O)CO[C@@H]1C[C@@H]2O [Paclitaxel]
ABT-737 = compound: CN(C)CC[C@H](CSc1ccccc1)Nc1ccc(S(=O)(=O)NC(=O)c2ccc(N3CCN(Cc4ccccc4-c4ccc(Cl)cc4)CC3)cc2)cc1[N+](=O)[O-] [ABT-737]
Taselisib/GDC0032 = compound: Cc1nc(-c2cn3c(n2)-c2ccc(-c4cnn(C(C)(C)C(N)=O)c4)cc2OCC3)n(C(C)C)n1 [Taselisib/GDC0032]
Pictilisib/GDC0941 = compound: CS(=O)(=O)N1CCN(Cc2cc3nc(-c4cccc5[nH]ncc45)nc(N4CCOCC4)c3s2)CC1 [Pictilisib/GDC0941]
THZ531 = compound: CN(C)C/C=C/C(=O)Nc1ccc(C(=O)N2CCC[C@@H](Nc3ncc(Cl)c(-c4c[nH]c5ccccc45)n3)C2)cc1 [THZ531]
[4] = compound: CCN1CCN(Cc2ccc(Nc3ncc(F)c(-c4cc(F)c5nc(C)n(C(C)C)c5c4)n3)nc2)CC1
BSJ-03-123 [5] = compound: T1, BSJ-03-123; test: GR value, 72 h; higher = faster growth (1 = untreated, <0 = killing);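 note: breast cancer and non-malignant breast epithelial lines, nine half-log doses, viable cells counted by Hoechst and LIVE/DEAD dye imaging versus time-zero plates and DMSO controls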
YKL-5-124 = compound: C=CC(=O)Nc1ccc(C(=O)Nc2[nH]nc3c2CN(C(=O)N[C@H](CN(C)C)c2ccccc2)C3(C)C)cc1 [YKL-5-124]; test: as above
Neratinib/HKI272 [6] = compound: T2, Neratinib/HKI272; test: as above
[7] = compound: CCc1cnn2c(NCc3ccc[n+]([O-])c3)cc(N3CCCC[C@H]3CCO)nc12; test: as above
LEE011/Ribociclib [8] = compound: T3, LEE011/Ribociclib; test: as above
[9] = compound: CCN1CCN(Cc2ccc(Nc3ncc(F)c(-c4cc(F)c5nc(C)n(C(C)C)c5c4)n3)nc2)CC1; test: as above
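Throughout, for GR50, 72 h: breast cancer and non-malignant breast epithelial cell lines, Deep Dye Drop or Dye Drop imaging, nine half-log doses, GR normalized to time-zero plates and DMSO-only controls.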

In the case of SUM185PE, the “GR50, 72 h” value (BSJ-03-123 [1]) is reported as over 10 µM, the “GR50, 72 h” value (Volasertib/BI6727) is reported as 0.0238 µM and the “GR50, 72 h” value (Ceritinib/LDK378) is reported as 0.983 µM. The “GR50, 72 h” value (INK128/MLN0128) was 0.00558 µM, the “GR50, 72 h” value (Neratinib/HKI272 [2]) was 0.537 µM and the “GR50, 72 h” value (LEE011/Ribociclib [3]) was over 10 µM. For the same cell line, the “GR50, 72 h” value (Tivantinib/ARQ197) was 0.784 µM, the “GR50, 72 h” value (Paclitaxel) was 0.00463 µM and the “GR50, 72 h” value (ABT-737) was 0.927 µM. For the same cell line, the “GR50, 72 h” value (Taselisib/GDC0032) was 0.00177 µM, the “GR50, 72 h” value (Pictilisib/GDC0941) was 0.127 µM and the “GR50, 72 h” value (THZ531) was 0.136 µM. For the same cell line, the “GR50, 72 h” value [4] was 9.37 µM, the GR value (BSJ-03-123 [5]; 0.001 µM) was 0.901 GR and the GR value (BSJ-03-123 [5]; 0.003162 µM) was 0.946 GR. For the same cell line, the GR value (BSJ-03-123 [5]; 0.01 µM) was 0.906 GR, the GR value (BSJ-03-123 [5]; 0.03162 µM) was 0.922 GR and the GR value (BSJ-03-123 [5]; 0.1 µM) was 0.819 GR. The GR value (BSJ-03-123 [5]; 0.3162 µM) was 0.776 GR, the GR value (BSJ-03-123 [5]; 1 µM) was 0.799 GR and the GR value (BSJ-03-123 [5]; 3.162 µM) was 0.758 GR. For the same cell line, the GR value (BSJ-03-123 [5]; 10 µM) was 0.649 GR, the GR value (YKL-5-124; 0.001 µM) was 0.7 GR and the GR value (YKL-5-124; 0.003162 µM) was 0.648 GR. The GR value (YKL-5-124; 0.01 µM) was 0.517 GR, the GR value (YKL-5-124; 0.03162 µM) was 0.469 GR and the GR value (YKL-5-124; 0.1 µM) was 0.434 GR. It also gave a GR value (YKL-5-124; 0.3162 µM) of 0.474 GR, a GR value (YKL-5-124; 1 µM) of 0.496 GR and a GR value (YKL-5-124; 3.162 µM) of 0.231 GR. For the same cell line, the GR value (YKL-5-124; 10 µM) was -0.008 GR, the GR value (Neratinib/HKI272 [6]; 0.0003162 µM) was 0.996 GR and the GR value (Neratinib/HKI272 [6]; 0.001 µM) was 1.05 GR. For the same cell line, the GR value (Neratinib/HKI272 [6]; 0.003162 µM) was 0.979 GR, the GR value (Neratinib/HKI272 [6]; 0.01 µM) was 0.808 GR and the GR value (Neratinib/HKI272 [6]; 0.03162 µM) was 0.839 GR. The GR value (Neratinib/HKI272 [6]; 0.1 µM) was 0.681 GR, the GR value (Neratinib/HKI272 [6]; 0.3162 µM) was 0.595 GR and the GR value (Neratinib/HKI272 [6]; 1 µM) was 0.476 GR. It also gave a GR value (Neratinib/HKI272 [6]; 3.162 µM) of 0.267 GR, a GR value ([7]; 0.0001 µM) of 1.06 GR and a GR value ([7]; 0.0003162 µM) of 1.2 GR. It also gave a GR value ([7]; 0.001 µM) of 1.04 GR, a GR value ([7]; 0.003162 µM) of 0.999 GR and a GR value ([7]; 0.01 µM) of 0.955 GR. For the same cell line, the GR value ([7]; 0.03162 µM) was 0.387 GR, the GR value ([7]; 0.1 µM) was 0.227 GR and the GR value ([7]; 0.3162 µM) was 0.203 GR. The GR value ([7]; 1 µM) was 0.171 GR, the GR value (LEE011/Ribociclib [8]; 0.001 µM) was 0.867 GR and the GR value (LEE011/Ribociclib [8]; 0.003162 µM) was 1.04 GR. The GR value (LEE011/Ribociclib [8]; 0.01 µM) was 0.798 GR, the GR value (LEE011/Ribociclib [8]; 0.03162 µM) was 0.942 GR and the GR value (LEE011/Ribociclib [8]; 0.1 µM) was 1 GR. It also gave a GR value (LEE011/Ribociclib [8]; 0.3162 µM) of 0.948 GR, a GR value (LEE011/Ribociclib [8]; 1 µM) of 0.913 GR and a GR value (LEE011/Ribociclib [8]; 3.162 µM) of 0.832 GR. For the same cell line, the GR value (LEE011/Ribociclib [8]; 10 µM) was 0.846 GR, the GR value ([9]; 0.001 µM) was 0.941 GR and the GR value ([9]; 0.003162 µM) was 0.871 GR. It also gave a GR value ([9]; 0.01 µM) of 0.877 GR, a GR value ([9]; 0.03162 µM) of 0.874 GR and a GR value ([9]; 0.1 µM) of 0.742 GR. It also gave a GR value ([9]; 0.3162 µM) of 0.691 GR, a GR value ([9]; 1 µM) of 0.613 GR and a GR value ([9]; 3.162 µM) of 0.595 GR. It also gave a GR value ([9]; 10 µM) of 0.5 GR.
